# Measurements as given in ChEMBL document CHEMBL1201862, “PubChem BioAssay data set” (2004).
# Activity calls are given as the source filed them.
# How the values were obtained:
# Insulin-degrading enzyme = target: T1, Insulin-degrading enzyme (Homo sapiens, UniProt P14735); test: cellular IDE activation of Abeta substrate cleavage – fluorescence polarization, HEK cells, dose response (AID 588439); format: functional, cell-based
# T1 sequence (P14735 whole entry): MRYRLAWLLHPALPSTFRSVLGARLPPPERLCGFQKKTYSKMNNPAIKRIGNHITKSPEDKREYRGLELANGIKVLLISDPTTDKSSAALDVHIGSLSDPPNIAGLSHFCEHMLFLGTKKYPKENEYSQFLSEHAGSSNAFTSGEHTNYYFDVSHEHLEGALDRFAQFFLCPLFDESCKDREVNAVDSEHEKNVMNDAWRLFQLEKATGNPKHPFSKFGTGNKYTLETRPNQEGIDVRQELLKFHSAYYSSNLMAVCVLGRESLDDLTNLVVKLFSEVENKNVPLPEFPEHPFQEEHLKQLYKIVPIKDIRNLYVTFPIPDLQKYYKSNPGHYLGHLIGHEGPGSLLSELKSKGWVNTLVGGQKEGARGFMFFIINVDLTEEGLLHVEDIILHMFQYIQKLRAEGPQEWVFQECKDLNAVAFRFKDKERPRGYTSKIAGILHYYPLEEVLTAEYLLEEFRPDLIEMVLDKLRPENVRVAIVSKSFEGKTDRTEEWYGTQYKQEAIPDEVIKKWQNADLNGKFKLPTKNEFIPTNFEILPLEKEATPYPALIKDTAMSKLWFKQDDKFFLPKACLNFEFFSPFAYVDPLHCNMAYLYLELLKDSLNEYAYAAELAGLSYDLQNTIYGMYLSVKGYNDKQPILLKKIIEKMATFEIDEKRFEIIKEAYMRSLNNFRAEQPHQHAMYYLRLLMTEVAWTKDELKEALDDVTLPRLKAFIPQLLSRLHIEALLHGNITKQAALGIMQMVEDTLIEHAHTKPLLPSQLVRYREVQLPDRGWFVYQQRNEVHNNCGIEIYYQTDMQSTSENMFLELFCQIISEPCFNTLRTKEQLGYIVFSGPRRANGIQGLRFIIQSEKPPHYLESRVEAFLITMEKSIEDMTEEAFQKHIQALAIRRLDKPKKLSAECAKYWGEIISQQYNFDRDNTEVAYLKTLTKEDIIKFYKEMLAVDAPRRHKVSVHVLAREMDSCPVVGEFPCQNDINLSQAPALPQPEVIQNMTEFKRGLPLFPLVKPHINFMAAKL
# HeLa = test: viability loss in HeLa cells – cell-based, 24 h, cherry-picked samples, cytotoxicity control, dose response (AID 504726); format: functional; details: Homo sapiens;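 also: potency for cytotoxicity as loss of luminescence signal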
# [1] = target: Lymphokine-activated killer T-cell-originated protein kinase (Homo sapiens, UniProt Q96KB5); format: functional;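 also: value comes from a kinase panel screen in which TOPK was one of the panel members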
# Chain of Lymphokine-activated killer T-cell-originated protein kinase (Q96KB5 whole entry): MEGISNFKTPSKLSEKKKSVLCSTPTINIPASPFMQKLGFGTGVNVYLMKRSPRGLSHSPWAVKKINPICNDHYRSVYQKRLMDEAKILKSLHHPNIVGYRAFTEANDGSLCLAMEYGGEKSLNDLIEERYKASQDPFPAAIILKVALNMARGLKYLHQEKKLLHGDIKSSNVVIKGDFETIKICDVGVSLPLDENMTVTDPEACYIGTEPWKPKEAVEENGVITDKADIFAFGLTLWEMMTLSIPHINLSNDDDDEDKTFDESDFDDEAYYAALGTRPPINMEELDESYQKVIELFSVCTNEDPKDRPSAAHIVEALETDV
# [2] = target: Mitogen-activated protein kinase 13 (Homo sapiens, UniProt O15264); format: functional
# Chain of Mitogen-activated protein kinase 13 (O15264 whole entry): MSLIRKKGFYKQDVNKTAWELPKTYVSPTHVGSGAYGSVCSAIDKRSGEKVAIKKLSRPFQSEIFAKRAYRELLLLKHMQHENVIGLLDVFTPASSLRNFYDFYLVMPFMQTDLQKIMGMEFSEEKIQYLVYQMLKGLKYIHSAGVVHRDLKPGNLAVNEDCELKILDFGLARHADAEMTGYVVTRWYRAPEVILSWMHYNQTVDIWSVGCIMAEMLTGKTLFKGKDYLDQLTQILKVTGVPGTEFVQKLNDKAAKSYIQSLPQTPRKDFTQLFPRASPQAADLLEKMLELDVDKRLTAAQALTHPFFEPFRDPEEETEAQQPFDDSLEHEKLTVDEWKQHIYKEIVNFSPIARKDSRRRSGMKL
# [3] = target: RAC-gamma serine/threonine-protein kinase (Homo sapiens, UniProt Q9Y243); format: functional
# Chain of RAC-gamma serine/threonine-protein kinase (Q9Y243 whole entry): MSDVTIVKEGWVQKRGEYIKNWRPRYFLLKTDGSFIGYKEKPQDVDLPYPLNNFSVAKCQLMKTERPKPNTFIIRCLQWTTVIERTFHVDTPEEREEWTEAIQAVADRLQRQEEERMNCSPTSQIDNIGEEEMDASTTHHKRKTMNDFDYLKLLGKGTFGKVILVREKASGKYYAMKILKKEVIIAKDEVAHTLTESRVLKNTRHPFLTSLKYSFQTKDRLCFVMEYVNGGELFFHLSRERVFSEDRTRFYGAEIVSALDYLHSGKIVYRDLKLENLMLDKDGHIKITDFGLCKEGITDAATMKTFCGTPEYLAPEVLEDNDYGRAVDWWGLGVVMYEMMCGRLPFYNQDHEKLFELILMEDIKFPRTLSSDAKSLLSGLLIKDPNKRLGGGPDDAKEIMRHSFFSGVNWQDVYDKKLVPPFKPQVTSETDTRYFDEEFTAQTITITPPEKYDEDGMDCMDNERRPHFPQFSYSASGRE
# [4] = target: RAC-alpha serine/threonine-protein kinase (Homo sapiens, UniProt P31749); format: functional;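 also: AKT1 affinity measured as one member of a kinome-wide kinase profiling panel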
# Chain of RAC-alpha serine/threonine-protein kinase (P31749 whole entry): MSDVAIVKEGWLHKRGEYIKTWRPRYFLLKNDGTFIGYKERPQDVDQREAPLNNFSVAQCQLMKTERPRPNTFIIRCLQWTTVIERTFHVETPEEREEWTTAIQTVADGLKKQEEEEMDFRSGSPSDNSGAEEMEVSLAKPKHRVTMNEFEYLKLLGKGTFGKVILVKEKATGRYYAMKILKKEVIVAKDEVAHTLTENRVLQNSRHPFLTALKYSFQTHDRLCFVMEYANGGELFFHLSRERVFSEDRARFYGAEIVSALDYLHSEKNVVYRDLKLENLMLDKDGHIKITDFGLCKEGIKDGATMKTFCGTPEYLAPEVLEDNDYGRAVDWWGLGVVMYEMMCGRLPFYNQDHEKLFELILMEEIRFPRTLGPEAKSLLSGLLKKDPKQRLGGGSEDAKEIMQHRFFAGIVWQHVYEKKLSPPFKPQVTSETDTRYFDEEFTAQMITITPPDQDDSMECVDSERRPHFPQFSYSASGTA
# Misshapen-like kinase 1 = Misshapen-like kinase 1 (Homo sapiens, UniProt Q8N4C8); format: functional;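 also: kinome panel screen with MINK as the panel member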
# Chain of Misshapen-like kinase 1 (Q8N4C8 whole entry): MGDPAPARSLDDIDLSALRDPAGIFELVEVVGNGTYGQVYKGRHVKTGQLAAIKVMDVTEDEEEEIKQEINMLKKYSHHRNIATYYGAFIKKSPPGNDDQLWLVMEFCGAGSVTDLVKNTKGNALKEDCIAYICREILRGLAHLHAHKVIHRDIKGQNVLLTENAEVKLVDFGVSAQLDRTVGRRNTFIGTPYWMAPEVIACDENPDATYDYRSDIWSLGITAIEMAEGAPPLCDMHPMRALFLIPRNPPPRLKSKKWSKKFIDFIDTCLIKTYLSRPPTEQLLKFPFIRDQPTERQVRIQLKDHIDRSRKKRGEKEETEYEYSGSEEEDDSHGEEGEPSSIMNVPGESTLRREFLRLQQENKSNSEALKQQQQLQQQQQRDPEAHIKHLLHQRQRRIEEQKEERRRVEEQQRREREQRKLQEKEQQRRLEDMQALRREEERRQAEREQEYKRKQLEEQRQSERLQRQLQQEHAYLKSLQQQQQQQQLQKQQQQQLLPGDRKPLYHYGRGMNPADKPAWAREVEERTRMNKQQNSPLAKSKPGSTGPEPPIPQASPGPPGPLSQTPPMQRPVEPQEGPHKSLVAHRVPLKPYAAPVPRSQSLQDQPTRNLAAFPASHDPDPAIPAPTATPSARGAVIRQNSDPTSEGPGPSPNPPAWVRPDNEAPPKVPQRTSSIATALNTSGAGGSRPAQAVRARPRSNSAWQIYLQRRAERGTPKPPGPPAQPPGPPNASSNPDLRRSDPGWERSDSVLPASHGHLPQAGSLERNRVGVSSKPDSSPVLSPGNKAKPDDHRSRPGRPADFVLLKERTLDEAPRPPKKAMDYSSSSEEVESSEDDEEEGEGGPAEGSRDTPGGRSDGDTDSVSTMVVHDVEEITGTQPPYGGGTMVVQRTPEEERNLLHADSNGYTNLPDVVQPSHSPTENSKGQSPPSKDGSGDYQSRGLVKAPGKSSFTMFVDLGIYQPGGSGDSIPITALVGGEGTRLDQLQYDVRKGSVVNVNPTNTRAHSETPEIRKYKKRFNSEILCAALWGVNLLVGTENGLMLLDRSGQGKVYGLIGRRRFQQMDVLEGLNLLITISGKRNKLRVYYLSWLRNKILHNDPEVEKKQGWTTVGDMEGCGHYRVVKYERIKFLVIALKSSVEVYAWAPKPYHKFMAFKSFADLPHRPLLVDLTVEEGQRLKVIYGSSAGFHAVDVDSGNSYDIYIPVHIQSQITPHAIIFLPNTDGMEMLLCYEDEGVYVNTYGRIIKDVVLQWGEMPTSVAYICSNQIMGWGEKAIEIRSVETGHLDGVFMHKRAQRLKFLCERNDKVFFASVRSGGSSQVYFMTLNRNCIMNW
# [5] = target: Inhibitor of nuclear factor kappa-B kinase subunit epsilon (Homo sapiens, UniProt Q14164); test: Navigating the Kinome. Panel member name: IKBKE; format: functional
# Chain of Inhibitor of nuclear factor kappa-B kinase subunit epsilon (Q14164 whole entry): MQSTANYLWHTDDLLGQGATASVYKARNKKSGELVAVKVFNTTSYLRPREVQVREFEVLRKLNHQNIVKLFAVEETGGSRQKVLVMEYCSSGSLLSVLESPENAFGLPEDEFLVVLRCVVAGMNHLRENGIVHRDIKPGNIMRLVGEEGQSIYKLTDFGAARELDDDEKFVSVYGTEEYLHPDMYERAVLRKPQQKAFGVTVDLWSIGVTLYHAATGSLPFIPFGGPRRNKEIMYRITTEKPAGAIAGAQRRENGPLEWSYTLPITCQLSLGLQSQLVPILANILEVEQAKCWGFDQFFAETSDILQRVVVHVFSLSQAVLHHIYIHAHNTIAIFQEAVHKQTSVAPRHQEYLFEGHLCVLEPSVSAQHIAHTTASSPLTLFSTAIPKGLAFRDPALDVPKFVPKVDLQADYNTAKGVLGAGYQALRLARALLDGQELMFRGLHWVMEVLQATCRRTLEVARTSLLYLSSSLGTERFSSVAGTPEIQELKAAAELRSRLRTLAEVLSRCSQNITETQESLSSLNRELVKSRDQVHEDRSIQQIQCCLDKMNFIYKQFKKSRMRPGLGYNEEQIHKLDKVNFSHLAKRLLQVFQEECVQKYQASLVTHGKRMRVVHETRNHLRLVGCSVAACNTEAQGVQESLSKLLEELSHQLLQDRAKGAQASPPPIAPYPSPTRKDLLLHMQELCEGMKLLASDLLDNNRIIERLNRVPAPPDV
smiles,measurement,setting,value
CCN(CC)CCCC(C)n1c2nc(=O)[nH]c(=O)c-2nc2cc(Cl)ccc21 (stereo unspecified),EC50,Insulin-degrading enzyme,> 54.7 µM (inactive)
same,AC50,HeLa,8.49 µM (active)
OC1CCC(Nc2nc(Cl)cc(-c3c[nH]c4ncccc34)n2)CC1 (stereo unspecified),Ki,[1],3.16 µM (active)
same,Ki,[2],0.126 µM (active)
same,pKi,[2],6.9
same,Ki,[3],> 10 µM (inactive)
same,Ki,[4],2 µM (active)
same,pKi,[4],5.7
same,Ki,Misshapen-like kinase 1,0.00316 µM (active)
same,pKi,Misshapen-like kinase 1,8.5
COc1cccc(CNC(=O)c2cnc(-c3ccncc3)nc2)c1,Ki,[5],> 3.16 µM (inactive)
